Measured values as given in patent EP0308568A1, “Diacyl derivatives of 4-(trialkylbenzyl)-piperazinyl compounds” (CIBA-GEIGY AG, priority 1987, dated 1989).
Values after ≈ are worked out from the molar mass of the structure shown.

Key:
[1] = system: "very low density"-, "low-density"- bzw. "high density"-Lipoproteinen (VLDL, LDL bzw. HDL) im Serum; test: Lipid-lowering effect in rats: serum lipoproteins after oral dosing (arrangement A: genetically hypercholesterolaemic male rats; arrangement B: normolipaemic rats); assay type: in vivo, Ratten; conditions: repeated administration of 30 mg/kg daily
Description: Die Diacyl-Verbindungen der vorliegenden Erfindung dagegen weisen, wenn überhaupt, eine nur marginale antibiotische Wirkung auf. Ueberraschenderweise besitzen sie jedoch eine lipidsenkende Wirkung, die in Tierversuchen, vorzugsweise an Säugetieren, z.B. an Ratten, nachgewiesen werden kann. So kann die Senkung von "very low density"-, "low-density"- bzw. "high density"-Lipoproteinen (VLDL, LDL bzw. HDL) im Serum in zwei Testanordnungen, und zwar in genetisch hypercholesterolämischen männlichen Ratten (Anordnung A) und normolipämischen Ratten beiden Geschlechts (Anordnung B) gezeigt werden.
Albino-Ratten mit einem Körpergewicht von 180-240 g, die freien Zugang zu Standard-Rattenfutter und Trinkwasser haben, werden verwendet, und zwar in Anordnung A Sprague Dawley Abkömmlinge des Stammes Tif:RAI und in Anordnung B Tiere des Wistar-Stammes IVa-WI. Die Testverbindung wird in einer Polyethylenglykollösung (mittleres Molekulargewicht von 400) oral an Gruppen von 8 bis 10 Ratten verabreicht, in der Anordnung A einmal täglich um 8 Uhr vormittags während drei aufeinanderfolgenden Tagen und zweimal, um 8 Uhr und 16 Uhr, am vierten Tag, oder im Falle der Anordnung B täglich während 5 aufeinanderfolgenden Tagen. Im Experiment A werden die Tiere 16 Stunden und im Experiment B zwei Stunden nach der letzten Gabe durch Ausblutenlassen vom Hals unter Anästhesie mit Ether getötet. […]

[2] = molecular target: RNA-Polymerase von Escherichia coli (Escherichia coli, UniProt P0A8V2); test: Inhibition of RNA polymerase (antibiotic effect in vitro); assay type: biochemical; conditions: not yet reached at 100 µg/ml; read-out: EC₅₀ für die Inhibition der RNA-Polymerase
Description: (§1) Die Ermittlung der antibiotischen Wirkung erfolgt z.B. einerseits in vitro durch die Bestimmung der mittleren effektiven Konzentration EC₅₀ für die Hemmung der RNA-Polymerase von Escherichia coli, sowie der minimalen Hemmkonzentration MIC ("minimum inhibitory concentration") im konventionellen Plattentest, andererseits in vivo an infizierten Mäusen und Ratten durch die Bestimmung von ED₅₀ (effektive Dosis, die für 50 % der Versuchstiere lebenserhaltend ist). Als Mikroorganismen werden für den vorliegenden Zweck insbesondere Mycobacterium tuberculosis TB H₃₇Rv und Staphylococcus aureus verwendet. Bei Verbindungen mit lipidsenkender Indikation wird eine antibiotische Wirksamkeit als nachteilig erachtet, da sie, insbesondere bei langfristiger Verabreichung, zur Bildung von gegen Antibiotika resistenten Stämmen von Mikroorganismen führen kann.

Staphylococcus aureus [3] = test: Minimum inhibitory concentration, conventional plate test; assay type: cell-based; conditions: various pathogenic strains of Staphylococcus aureus
Description: as §1

Staphylococcus aureus [4] = test: Antibiotic effect in vivo in infected mice; design: species or system Mäuse; conditions: mice infected with Staphylococcus aureus, single dose of 200 mg/kg
Description: as §1

RNA-Polymerase von Escherichia coli, sequence (P0A800 whole entry): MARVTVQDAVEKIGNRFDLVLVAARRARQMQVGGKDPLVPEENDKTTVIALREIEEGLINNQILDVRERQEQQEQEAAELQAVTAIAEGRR
RNA-Polymerase von Escherichia coli, sequence (P0A8T7 whole entry, further chain): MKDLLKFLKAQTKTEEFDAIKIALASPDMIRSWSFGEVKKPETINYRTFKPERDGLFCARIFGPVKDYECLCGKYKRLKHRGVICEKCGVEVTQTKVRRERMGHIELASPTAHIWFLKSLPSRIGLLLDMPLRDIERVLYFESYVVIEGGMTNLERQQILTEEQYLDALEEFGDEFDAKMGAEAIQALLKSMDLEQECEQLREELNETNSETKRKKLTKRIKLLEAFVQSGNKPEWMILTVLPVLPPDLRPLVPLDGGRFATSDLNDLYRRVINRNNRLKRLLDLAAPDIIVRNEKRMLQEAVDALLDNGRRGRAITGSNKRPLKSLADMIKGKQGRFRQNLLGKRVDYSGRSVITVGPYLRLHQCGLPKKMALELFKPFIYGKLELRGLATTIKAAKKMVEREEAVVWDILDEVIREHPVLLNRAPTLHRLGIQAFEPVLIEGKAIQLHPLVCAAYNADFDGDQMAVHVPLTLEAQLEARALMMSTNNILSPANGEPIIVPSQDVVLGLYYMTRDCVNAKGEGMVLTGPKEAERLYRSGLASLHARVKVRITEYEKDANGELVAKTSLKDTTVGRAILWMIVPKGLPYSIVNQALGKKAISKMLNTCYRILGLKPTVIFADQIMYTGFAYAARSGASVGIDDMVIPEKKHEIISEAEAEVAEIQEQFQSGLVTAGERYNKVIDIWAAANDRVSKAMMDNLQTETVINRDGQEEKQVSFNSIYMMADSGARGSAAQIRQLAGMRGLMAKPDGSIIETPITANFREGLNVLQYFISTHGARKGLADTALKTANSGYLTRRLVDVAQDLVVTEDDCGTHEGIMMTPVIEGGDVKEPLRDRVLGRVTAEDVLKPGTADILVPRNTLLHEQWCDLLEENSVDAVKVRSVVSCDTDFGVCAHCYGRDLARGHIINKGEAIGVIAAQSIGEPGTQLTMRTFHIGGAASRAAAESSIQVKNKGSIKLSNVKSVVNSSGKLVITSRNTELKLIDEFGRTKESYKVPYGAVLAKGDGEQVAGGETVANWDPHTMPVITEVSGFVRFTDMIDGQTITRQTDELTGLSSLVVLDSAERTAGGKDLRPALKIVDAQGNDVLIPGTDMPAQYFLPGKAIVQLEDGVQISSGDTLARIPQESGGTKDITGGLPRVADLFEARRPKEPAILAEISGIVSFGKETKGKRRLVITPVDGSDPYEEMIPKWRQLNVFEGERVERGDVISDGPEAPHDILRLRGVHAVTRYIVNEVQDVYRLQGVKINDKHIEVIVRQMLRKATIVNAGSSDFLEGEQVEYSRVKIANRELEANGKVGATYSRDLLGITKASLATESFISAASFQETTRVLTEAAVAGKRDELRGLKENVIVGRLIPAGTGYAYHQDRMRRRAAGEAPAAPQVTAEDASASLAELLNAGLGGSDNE
RNA-Polymerase von Escherichia coli, sequence (P0A8V2 whole entry): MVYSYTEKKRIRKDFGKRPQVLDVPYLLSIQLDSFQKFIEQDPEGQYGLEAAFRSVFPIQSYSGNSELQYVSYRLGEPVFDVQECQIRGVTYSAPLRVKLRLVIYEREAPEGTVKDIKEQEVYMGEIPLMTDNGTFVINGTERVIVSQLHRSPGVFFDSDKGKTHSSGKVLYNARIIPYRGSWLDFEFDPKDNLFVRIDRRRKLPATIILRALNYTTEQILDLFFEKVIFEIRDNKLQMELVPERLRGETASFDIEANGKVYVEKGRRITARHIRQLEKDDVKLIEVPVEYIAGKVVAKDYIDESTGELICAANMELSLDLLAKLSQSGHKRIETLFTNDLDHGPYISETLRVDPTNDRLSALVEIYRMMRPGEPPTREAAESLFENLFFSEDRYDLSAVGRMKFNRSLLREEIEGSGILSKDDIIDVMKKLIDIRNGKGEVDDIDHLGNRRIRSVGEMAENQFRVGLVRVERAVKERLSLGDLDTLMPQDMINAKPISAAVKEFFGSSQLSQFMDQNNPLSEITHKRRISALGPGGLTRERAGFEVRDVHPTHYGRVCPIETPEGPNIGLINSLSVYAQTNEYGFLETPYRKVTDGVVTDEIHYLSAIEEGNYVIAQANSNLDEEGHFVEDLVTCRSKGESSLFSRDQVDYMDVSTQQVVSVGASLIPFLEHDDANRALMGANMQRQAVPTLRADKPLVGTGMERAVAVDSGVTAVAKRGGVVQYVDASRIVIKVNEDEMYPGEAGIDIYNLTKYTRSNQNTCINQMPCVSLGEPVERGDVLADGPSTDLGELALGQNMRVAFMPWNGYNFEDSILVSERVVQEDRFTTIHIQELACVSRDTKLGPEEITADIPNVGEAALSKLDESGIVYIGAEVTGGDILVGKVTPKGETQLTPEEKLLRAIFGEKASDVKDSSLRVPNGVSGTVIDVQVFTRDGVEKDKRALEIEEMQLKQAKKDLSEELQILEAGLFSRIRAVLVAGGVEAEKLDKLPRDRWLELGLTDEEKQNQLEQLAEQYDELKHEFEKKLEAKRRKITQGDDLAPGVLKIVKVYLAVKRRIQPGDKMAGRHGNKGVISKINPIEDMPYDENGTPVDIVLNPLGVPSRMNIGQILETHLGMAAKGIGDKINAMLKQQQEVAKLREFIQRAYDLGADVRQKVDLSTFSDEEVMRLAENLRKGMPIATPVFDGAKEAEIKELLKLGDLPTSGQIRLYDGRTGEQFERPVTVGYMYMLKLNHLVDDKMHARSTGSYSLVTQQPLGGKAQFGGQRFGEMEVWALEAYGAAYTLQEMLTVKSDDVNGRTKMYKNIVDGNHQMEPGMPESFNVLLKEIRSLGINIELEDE
RNA-Polymerase von Escherichia coli, sequence (P0A7Z4 whole entry, further chain): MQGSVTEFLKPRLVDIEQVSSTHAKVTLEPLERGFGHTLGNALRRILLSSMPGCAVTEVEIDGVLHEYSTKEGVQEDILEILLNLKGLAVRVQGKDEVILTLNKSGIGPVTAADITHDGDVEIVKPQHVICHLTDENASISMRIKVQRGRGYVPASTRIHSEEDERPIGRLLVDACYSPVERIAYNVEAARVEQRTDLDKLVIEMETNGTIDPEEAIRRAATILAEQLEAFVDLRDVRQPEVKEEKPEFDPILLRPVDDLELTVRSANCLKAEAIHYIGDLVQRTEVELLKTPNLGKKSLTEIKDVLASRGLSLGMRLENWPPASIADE

## COC1C=COC2(C)Oc3c(C)c(OC(=O)C(C)(C)C)c4c(c3C2=O)C(=O)C(N2CCN(Cc3c(C)cc(C)cc3C)CC2)=C(C4=O)N(C(=O)C(C)(C)C)C(=O)C(C)=CC=CC(C)C(O)C(C)C(O)C(C)C(OC(C)=O)C1C (stereo not shown) [8-O,N-Dipivaloyl-3-[4-(2,4,6-trimethylbenzyl)-1-piperazinyl]-rifamycin S]
[1]
  Senkung der "LDL-Fraktion": 50-70%
[2]
  EC50: > 92.6 µM
Staphylococcus aureus [3]
  MIC: ~64 µg/mL (≈ 59.2 µM)
Staphylococcus aureus [4]
  antibiotische Wirksamkeit in vivo: antibiotisch unwirksam
